Patent US10765114B2, “4-amino-6-(pyridyl and 2-substitutedphenyl)-picolinates and 6-amino-2-(pyridyl and 2-substitutedphenyl)-pyrimidine-4-carboxylates and their use as herbicides” (Dow AgroSciences LLC, priority 2013, dated 2020)

Assays:
[1] = test system: PHAMI (littleseed canarygrass); experiment: Post-Emergent Test III (Wheat and Barley); format: in vivo, Phalaris minor; settings: for Visual Growth Reduction (%) 21 Days After Application, PHAMI: postemergence
Method: (§1) Seeds of the desired test plant species were planted in Sun Gro MetroMix® 306 planting mixture, which typically has a pH of 6.0 to 6.8 and an organic matter content of about 30 percent, in plastic pots with a surface area of 103.2 square centimeters (cm^2). When required to ensure good germination and healthy plants, a fungicide treatment and/or other chemical or physical treatment was applied. The plants were grown for 7-36 days in a greenhouse with an approximate 14 h photoperiod which was maintained at about 18° C. during the day and 17° C. during the night. Nutrients and water were added on a regular basis and supplemental lighting was provided with overhead metal halide 1000-Watt lamps as necessary. The plants were employed for testing when they reached the second or third true leaf stage.
(§2) A weighed amount, determined by the highest rate to be tested, of each test compound was placed in a 25 mL glass vial and was dissolved in 4 mL of a 97:3 v/v mixture of acetone and DMSO to obtain concentrated stock solutions. […] The concentrated stock solutions obtained were diluted with 20 mL of an aqueous mixture containing acetone, water, isopropyl alcohol, DMSO, Agri-Dex crop oil concentrate, and X-77 surfactant in a 48:39:10:1.5:1.5:0.02 v/v ratio to obtain spray solutions containing the highest application rates. Additional application rates were obtained by serial dilution of 12 mL of the high rate solution into a solution containing 2 mL of 97:3 v/v mixture of acetone and DMSO and 10 mL of an aqueous mixture containing acetone, water, isopropyl alcohol, DMSO, Agri-Dex crop oil concentrate, and X-77 surfactant in a 48:39:10:1.5:1.5:0.02 v/v ratio to obtain ½×, ¼×, ⅛× and 1/16× rates of the high rate. Compound requirements are based upon a 12 mL application volume at a rate of 187 liters per hectare (L/ha). Formulated compounds were applied to the plant material with an overhead Mandel track sprayer equipped with 8002E nozzles calibrated to deliver 187 L/ha over an application area of 0.503 square meters at a spray height of 18 inches (43 cm) above the average plant canopy height. Control plants were sprayed in the same manner with the solvent blank.
(§3) The treated plants and control plants were placed in a greenhouse as described above and watered by subirrigation to prevent wash-off of the test compounds. After 21 dAYS, the condition of the test plants as compared with that of the untreated plants was determined visually and scored on a scale of 0 to 100 percent where 0 corresponds to no injury and 100 corresponds to complete kill and presented as indicated in Table A.
(§4) By applying the well-accepted probit analysis as described by J. Berkson in Journal of the American Statistical Society, 48, 565 (1953) and by D. Finney in “Probit Analysis” Cambridge University Press (1952), herbicidal injury of a specific compound at various rates can be used to calculate GR10, GR20, GR50, GR80 and GR90 values, which are defined as growth reduction factors that correspond to the effective dose of herbicide required to provide plant growth reduction (GR) of 10 percent, 20 percent, 50 percent, 80 percent and 90 percent, respectively. Probit analysis was applied to data collected from multiple dose rates of individual compounds utilizing the procedures explained in the following examples. The analysis of those dose rates is captured in the following tables.

[2] = test system: VERPE (Persian speedwell); experiment: Post-Emergent Test III (Wheat and Barley); format: in vivo, Veronica persica; settings: for GR50, VERPE / GR80, VERPE / GR90, VERPE: probit analysis
Method: as §1, §2, §3, §4

[3] = test system: LAMPU (purple deadnettle); experiment: Post-Emergent Test III (Wheat and Barley); format: in vivo, Lamium purpureum; settings: for GR50, LAMPU / GR80, LAMPU / GR90, LAMPU: probit analysis
Method: as §1, §2, §3, §4

SINAR (wild mustard) = experiment: Post-Emergent Test III (Wheat and Barley); format: in vivo, Sinapis arvensis; settings: for Visual Growth Reduction (%) 21 Days After Application, SINAR: postemergence
Method: as §1, §2, §3, §4

BROTE (downy brome) = experiment: Post-Emergent Test III (Wheat and Barley); format: in vivo, Bromus tectorum; settings: for Visual Growth Reduction (%) 21 Days After Application, BROTE: postemergence
Method: as §1, §2, §3, §4

[4] = test system: test plant species in Wheat and Barley; experiment: Post-Emergent Test III (Wheat and Barley), further species of Table 9; format: in vivo; settings: for Visual Growth Reduction (%) 21 Days After Application, CHEAL: CHEAL lambsquarters (Chenopodium album); for Visual Growth Reduction (%) 21 Days After Application, CHEAL / Visual Growth Reduction (%) 21 Days After Application, GALAP / Visual Growth Reduction (%) 21 Days After Application, STEME / Visual Growth Reduction (%) 21 Days After Application, VIOTR: post-emergent; for Visual Growth Reduction (%) 21 Days After Application, GALAP: GALAP cleavers (Galium aparine); for Visual Growth Reduction (%) 21 Days After Application, STEME: STEME common chickweed (Stellaria media); for Visual Growth Reduction (%) 21 Days After Application, VIOTR: VIOTR wild pansy (Viola tricolor)
Method: as §1, §2, §3, §4

[5] = effective dose for growth reduction of 50 percent, probit analysis
[6] = effective dose for growth reduction of 80 percent, probit analysis
[7] = effective dose for growth reduction of 90 percent, probit analysis
[8] = effective dose for growth reduction of 50 percent
[9] = effective dose for growth reduction of 80 percent
[10] = effective dose for growth reduction of 90 percent

Nc1c(F)c(-c2ccc(C(F)(F)F)nc2)nc(C(=O)O)c1Cl [Compound 46, 4-amino-5-chloro-3-fluoro-6′-(trifluoromethyl)-[2,3′-bipyridine]-6-carboxylic acid]
Visual Growth Reduction (%) 21 Days After Application, PHAMI ([1]; 35 g ai/ha): B (85-94)
Visual Growth Reduction (%) 21 Days After Application, PHAMI ([1]; 70 g ai/ha): B (85-94)
Visual Growth Reduction (%) 21 Days After Application, PHAMI ([1]; 140 g ai/ha): B (85-94)
GR50, PHAMI [1, 5]: 15 g ai/ha
GR80, PHAMI [1, 6]: 24 g ai/ha
GR90, PHAMI [1, 7]: 31 g ai/ha
Visual Growth Reduction (%) 21 Days After Application, VERPE ([2]; 35 g ai/ha, postemergence): A (95-100)
Visual Growth Reduction (%) 21 Days After Application, VERPE ([2]; 70 g ai/ha, postemergence): A (95-100)
Visual Growth Reduction (%) 21 Days After Application, VERPE ([2]; 140 g ai/ha, postemergence): A (95-100)
GR50, VERPE [2, 8]: 1 g ai/ha
GR80, VERPE [2, 9]: 2 g ai/ha
GR90, VERPE [2, 10]: 8 g ai/ha
Visual Growth Reduction (%) 21 Days After Application, LAMPU ([3]; 35 g ai/ha, postemergence): D (60-74)
Visual Growth Reduction (%) 21 Days After Application, LAMPU ([3]; 70 g ai/ha, postemergence): D (60-74)
Visual Growth Reduction (%) 21 Days After Application, LAMPU ([3]; 140 g ai/ha, postemergence): A (95-100)
GR50, LAMPU [3, 8]: 14 g ai/ha
GR80, LAMPU [3, 9]: 47 g ai/ha
GR90, LAMPU [3, 10]: 89 g ai/ha
Visual Growth Reduction (%) 21 Days After Application, SINAR (SINAR (wild mustard); 35 g ai/ha): B (85-94)
Visual Growth Reduction (%) 21 Days After Application, SINAR (SINAR (wild mustard); 70 g ai/ha): B (85-94)
Visual Growth Reduction (%) 21 Days After Application, SINAR (SINAR (wild mustard); 140 g ai/ha): A (95-100)
GR50, SINAR (SINAR (wild mustard); [5]): 2 g ai/ha
GR80, SINAR (SINAR (wild mustard); [6]): 19 g ai/ha
GR90, SINAR (SINAR (wild mustard); [7]): 62 g ai/ha
Visual Growth Reduction (%) 21 Days After Application, BROTE (BROTE (downy brome); 35 g ai/ha): E (45-59)
Visual Growth Reduction (%) 21 Days After Application, BROTE (BROTE (downy brome); 70 g ai/ha): D (60-74)
Visual Growth Reduction (%) 21 Days After Application, BROTE (BROTE (downy brome); 140 g ai/ha): B (85-94)
GR50, BROTE (BROTE (downy brome); [5]): 42 g ai/ha
GR80, BROTE (BROTE (downy brome); [6]): 93 g ai/ha
GR90, BROTE (BROTE (downy brome); [7]): 140 g ai/ha

Nc1cc(-c2ccc(Cl)c(Cl)c2Cl)nc(C(=O)O)c1Cl [Compound 93]
Visual Growth Reduction (%) 21 Days After Application, VERPE ([2]; VERPE bird's-eye speedwell (Veronica persica), 17.5 g ai/ha, post-emergent): E (45-59)
Visual Growth Reduction (%) 21 Days After Application, VERPE ([2]; VERPE bird's-eye speedwell (Veronica persica), 35 g ai/ha, post-emergent): D (60-74)
Visual Growth Reduction (%) 21 Days After Application, VERPE ([2]; VERPE bird's-eye speedwell (Veronica persica), 70 g ai/ha, post-emergent): D (60-74)
GR50, VERPE ([2]; VERPE, growth reduction of 50%, 21 days): 24 g ai/ha
GR80, VERPE ([2]; VERPE, growth reduction of 80%, 21 days): >140 g ai/ha
GR90, VERPE ([2]; VERPE, growth reduction of 90%, 21 days): >140 g ai/ha
Visual Growth Reduction (%) 21 Days After Application, CHEAL ([4]; 17.5 g ai/ha): C (75-84)
Visual Growth Reduction (%) 21 Days After Application, CHEAL ([4]; 35 g ai/ha): B (85-94)
Visual Growth Reduction (%) 21 Days After Application, CHEAL ([4]; 70 g ai/ha): B (85-94)
GR50, CHEAL ([4]; CHEAL, growth reduction of 50%, probit analysis, 21 days): 1 g ai/ha
GR80, CHEAL ([4]; CHEAL, growth reduction of 80%, probit analysis, 21 days): 16 g ai/ha
GR90, CHEAL ([4]; CHEAL, growth reduction of 90%, probit analysis, 21 days): 80 g ai/ha
Visual Growth Reduction (%) 21 Days After Application, GALAP ([4]; 17.5 g ai/ha): D (60-74)
Visual Growth Reduction (%) 21 Days After Application, GALAP ([4]; 35 g ai/ha): C (75-84)
Visual Growth Reduction (%) 21 Days After Application, GALAP ([4]; 70 g ai/ha): C (75-84)
GR50, GALAP ([4]; GALAP, growth reduction of 50%, probit analysis, 21 days): 1 g ai/ha
GR80, GALAP ([4]; GALAP, growth reduction of 80%, probit analysis, 21 days): 88 g ai/ha
GR90, GALAP ([4]; GALAP, growth reduction of 90%, probit analysis, 21 days): >140 g ai/ha
Visual Growth Reduction (%) 21 Days After Application, STEME ([4]; 17.5 g ai/ha): E (45-59)
Visual Growth Reduction (%) 21 Days After Application, STEME ([4]; 35 g ai/ha): D (60-74)
Visual Growth Reduction (%) 21 Days After Application, STEME ([4]; 70 g ai/ha): D (60-74)
GR50, STEME ([4]; STEME, growth reduction of 50%, probit analysis, 21 days): 11 g ai/ha
GR80, STEME ([4]; STEME, growth reduction of 80%, probit analysis, 21 days): >140 g ai/ha
GR90, STEME ([4]; STEME, growth reduction of 90%, probit analysis, 21 days): >140 g ai/ha
Visual Growth Reduction (%) 21 Days After Application, VIOTR ([4]; 17.5 g ai/ha): E (45-59)
Visual Growth Reduction (%) 21 Days After Application, VIOTR ([4]; 35 g ai/ha): E (45-59)
Visual Growth Reduction (%) 21 Days After Application, VIOTR ([4]; 70 g ai/ha): E (45-59)
GR50, VIOTR ([4]; VIOTR, growth reduction of 50%, probit analysis, 21 days): 41 g ai/ha
GR80, VIOTR ([4]; VIOTR, growth reduction of 80%, probit analysis, 21 days): >140 g ai/ha
GR90, VIOTR ([4]; VIOTR, growth reduction of 90%, probit analysis, 21 days): >140 g ai/ha
Visual Growth Reduction (%) 21 Days After Application, LAMPU ([3]; LAMPU purple deadnettle (Lamium purpureum), 17.5 g ai/ha, post-emergent): A (95-100)
Visual Growth Reduction (%) 21 Days After Application, LAMPU ([3]; LAMPU purple deadnettle (Lamium purpureum), 35 g ai/ha, post-emergent): A (95-100)
Visual Growth Reduction (%) 21 Days After Application, LAMPU ([3]; LAMPU purple deadnettle (Lamium purpureum), 70 g ai/ha, post-emergent): A (95-100)
GR50, LAMPU ([3]; LAMPU, growth reduction of 50%, 21 days): 1 g ai/ha
GR80, LAMPU ([3]; LAMPU, growth reduction of 80%, 21 days): 2 g ai/ha
GR90, LAMPU ([3]; LAMPU, growth reduction of 90%, 21 days): 8 g ai/ha
